From patent US20260224720A1, “ECTEINASCIDIN DERIVATIVE ANTIBODY DRUG CONJUGATES” (priority 2023, published 2026)

Experiments:
[1] = tested on: Confluent HCC1954 (Her2 positive); assay: Adherent cells cytotoxicity assay (CellTiter-Glo), confluent HCC1954; format: cell-based; details: Homo sapiens
SUDHL1 (CD30 positive) = assay: Suspension cells cytotoxicity assay (CellTiter-Glo), SUDHL1; format: cell-based; details: Homo sapiens, SU-DHL-1, 3-5 days
Experimental: Three to five thousand (3,000-5,000) cells per well were seeded in tissue culture plates in 50 μL/well culture media and incubated at 37° C. for 18-24 hours.
Serial dilutions of ADCs in culture media were then dispensed into the plates at 50 μL/well. […] CellTiter-Glo reagent was prepared per manufacturer's instructions and added at 100 μL/well to the cultures. CellTiter-Glo allows for relative enumeration of metabolically active cells by quantifying intracellular ATP concentrations. […] Luminescence signals were detected using a standard plate reader and IC50s were calculated by logistic nonlinear regression using GraphPad Prism (GraphPad Software, San Diego, CA).

HCC1954 (Her2 positive) = assay: Adherent cells cytotoxicity assay (CellTiter-Glo), HCC1954; format: cell-based; details: Homo sapiens, 3 to 5 days
Experimental: (§1) Adherent cells were cultured in a T75 flask to ~50-80% confluency and harvested with trypsin into a single cell suspension. Three to five thousand (3,000-5,000) cells per well were seeded in tissue culture plates in 50 μL/well culture media and incubated at 37° C. for 18-24 hours. Serial dilutions of ADCs in culture media were then dispensed into the plates at 50 μL/well. After plating and treatment, cells were returned to the incubator for an additional 3 to 5 days. CellTiter-Glo reagent was prepared per manufacturer's instructions and added at 100 μL/well to the cultures. CellTiter-Glo allows for relative enumeration of metabolically active cells by quantifying intracellular ATP concentrations. […] Luminescence signals were detected using a standard plate reader and IC50s were calculated by logistic nonlinear regression using GraphPad Prism (GraphPad Software, San Diego, CA).

SKBR3 (Her2 positive) = assay: Adherent cells cytotoxicity assay (CellTiter-Glo), SKBR3; format: cell-based; details: Homo sapiens, SK-BR-3, 3 to 5 days
Experimental: as §1

[2] = male mice, previously reported; cited from earlier work

Structure (SMILES) | IC50 [1] [nM] | IC50 (SUDHL1 (CD30 positive)) [nM] | IC50 (HCC1954 (Her2 positive)) [nM] | IC50 (SKBR3 (Her2 positive)) [nM] | maximum tolerated dose (MTD) [2] [mg/kg]
COc1ccc2[nH]c3c(c2c1)CCN(C(N1CCCC1)N1CCCC1)[C@]31CS[C@@H]2c3c(OC(C)=O)c(C)c4c(c3[C@H](COC1=O)N1C2[C@H]2c3c(cc(C)c(OC)c3O)C[C@@H](C1O)N2C)OCO4 (some centres unmarked) [Lurbinectedin Derivative 1] | 3.7 | 0.625 | 2.58 | 0.542 | 
COc1cc2c(cc1O)CCN[C@]21CS[C@@H]2c3c(OC(C)=O)c(C)c4c(c3[C@H](COC1=O)N1[C@@H]2[C@H]2c3c(cc(C)c(OC)c3O)C[C@@H]([C@@H]1O)N2C)OCO4 [trabectedin] |  |  |  |  | 0.15
